Results from PMC4550094 (Journal of biomolecular screening, 2013).
Read-outs that look alike come from different tables or passages of the source.

How the values were obtained:
HepG2 cells = assay: LipidTOX Red PLD assay, qHTS, 1536-well high-content imaging; assay type: cell-based, Human; details: for EC50: Homo sapiens, HepG2, 24 h
isolated lamellar bodies = details: Binding study; cited from earlier work

Question: What does the source list for `CC(CN(C)C)CN1c2ccccc2CCc2ccccc21` (stereo not shown) [Trimipramine]?
Answer: PLD induction (result in words) (HepG2 cells; HepG2, primary screen and cherry-pick confirmation): induce PLD; EC50 (HepG2 cells; read-out: Confirmation EC50 (PLD induction)): 8.7 ± 1.2 µM; EC50 (HepG2 cells; read-out: Primary Screen EC50 (PLD induction)): 3.5 µM; Literature-Reported: Active at (concentration) (isolated lamellar bodies): Active at 1 mM
